From article PMC4770093, “The role of kinetic context in apparent biased agonism at GPCRs” (Nature Communications, 2016)

Experiments:
D2R = experiment: Simulation of receptor occupancy over time from kon and koff; settings: simulation with a KD concentration of each agonist
Text: We extended these studies with a Tag-lite receptor binding assay using a D2R construct with an amino-terminal SNAP tag and the fluorescently labelled agonist (±)-4′-amino-2-(N-phenethyl-N-propyl)-amino-5-hydroxytetralin (PPHT). […] The association rate of a ligand is often thought to be diffusion limited. […] Using these kinetic parameters, we performed a simulation to estimate the receptor occupancy of a KD concentration of each agonist over time (Fig. 4e).
Kinetic binding parameters of kon (a), koff (b) and t1/2 (c) were determined in a competition kinetic binding assay using a Tag-lite binding assay and the fluorescently labelled agonist PPHT as the tracer ligand (Supplementary Table 6). […] All values are expressed as mean±s.e.m. from three experiments. (e) The values of kon and koff obtained in the competition kinetic assay were used to simulate receptor occupancy over time using equation (9) and the concentration of ligand equivalent to its KD (see Supplementary Table 6).
where Ymax reflects maximum binding of a concentration of ligand and kob is determined by equation (8).

[1] = molecular target: SNAP-tagged human dopamine D2L (Homo sapiens, UniProt P14416); experiment: Tag-lite PPHT-red competition kinetic binding (HTRF); settings: SNAP-D2LR-CHO membranes; 100 μM Gpp(NH)p; 37 °C
Procedure: To terbium label the SNAP-CHO-D2L cells, cell culture medium was removed from the T175 cm^2 flasks containing confluent adherent SNAP-CHO-D2L cells. Twelve millilitres of Tag-lite labelling medium containing 100 nM of SNAP-Lumi4-Tb was added to the flask and incubated for 1 h at 37 °C under 5% CO2. Cells were then washed 2 × in 15 ml PBS (GIBCO, Invitrogen, Paisley, UK) to remove the excess of SNAP-Lumi4-Tb and detached using 5 ml of enzyme-free Hank's-based cell dissociation buffer (GIBCO, Invitrogen, Paisley, UK) and collected in a vial containing 5 ml of DMEM/Nutrient F-12 Ham, 2 mM glutamine supplemented 10% FCS. Cells were pelleted by centrifugation (5 min at 1,500 r.p.m.) and the pellets were frozen to −80 °C before preparation of membranes.
All subsequent steps described were conducted at 4 °C, to avoid receptor degradation. Twenty millilitres of wash buffer (10 mM HEPES and 10 mM EDTA pH 7.4) was added to the pellet of terbium-labelled cells (equivalent to 1 × t175 cm^2). […] The supernatant was discarded and the pellet was homogenized and centrifuged as described above in wash buffer. The final pellet was suspended in ice-cold 10 mM HEPES and 0.1 mM EDTA pH 7.4, at a concentration of 5–10 mg m^−1. Protein concentration was determined by the bicinchoninic acid assay using BSA as a standard and aliquots maintained at −80 °C until required. Before their use, the frozen membranes were thawed and the membranes suspended in the assay buffer at a membrane concentration of 0.1 mg m^−1.
GppNHp was included to remove the G protein-coupled population of receptors that can result in two binding sites in membrane preparations, because the Motulsky–Mahan model is only appropriate for ligands competing at a single site. […] Both fluorescent ligands and unlabelled compounds were diluted in the binding assay buffer.
Kinetics acquisitions at intervals of 20 s were recorded using the standard settings of the reader for HTRF measurements. […] Specific binding was determined by subtracting the nonspecific HTRF ratio from the total HTRF ratio.
To accurately determine association rate (kon) and dissociation rate (koff) values, the observed rate of association (kob) was calculated using at least four different concentrations of PPHT-red. The appropriate concentration of PPHT-red was incubated in a 384-well Optiplate with human SNAP-D2LR-CHO cell membranes (2 μg per well) in assay binding buffer at 37 °C (final assay volume, 40 μl). The degree of PPHT-red bound to the receptor was assessed at multiple time points by HTRF detection, to allow construction of association kinetic curves. The resulting data were globally fitted to the association kinetic model (equation (8)) to derive a single best-fit estimate for kon and koff as described under ‘Data analysis'.
On the same 384-well Optiplate plate, the kinetic parameters of unlabelled ligand were assessed using a competition kinetic binding assay. This approach involves the simultaneous addition of both fluorescent ligand and competitor to receptor preparation so that at t=0 all receptors are unoccupied. […] The degree of PPHT-red bound to the receptor was assessed at multiple time points by HTRF detection. Nonspecific binding was determined as the amount of HTRF signal detected in the presence of spiperone (1 μM) and was subtracted from each time point. Each time point was conducted on the same 384-well plate incubated at 37 °C with shaking (100 r.p.m.) after every cycle.
Data were globally fitted using equation (7), to simultaneously calculate kon and koff.

SNAP-tagged human dopamine D2L, sequence (P14416 whole entry): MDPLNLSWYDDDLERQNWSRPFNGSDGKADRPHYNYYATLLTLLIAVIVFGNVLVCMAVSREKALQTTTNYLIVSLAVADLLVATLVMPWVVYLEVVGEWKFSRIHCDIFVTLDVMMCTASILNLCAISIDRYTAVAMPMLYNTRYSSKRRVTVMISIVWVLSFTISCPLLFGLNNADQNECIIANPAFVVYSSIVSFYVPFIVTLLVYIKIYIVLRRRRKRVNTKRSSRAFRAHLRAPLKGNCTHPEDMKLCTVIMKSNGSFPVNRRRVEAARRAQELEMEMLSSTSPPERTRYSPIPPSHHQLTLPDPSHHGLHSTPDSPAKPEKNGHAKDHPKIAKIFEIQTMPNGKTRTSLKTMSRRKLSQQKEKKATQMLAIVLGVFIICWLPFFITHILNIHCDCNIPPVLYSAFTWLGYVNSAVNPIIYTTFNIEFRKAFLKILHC

With NCCc1ccc(O)c(O)c1 [Dopamine, dopamine] the “time to maximal receptor occupancy” value (D2R) was ≤ 1 min.
CN(C)C(=O)N[C@H]1CC[C@H](CCN2CCN(c3cccc(Cl)c3Cl)CC2)CC1 [Cariprazine, cariprazine] was tested, and the “time to maximal receptor occupancy” value (D2R) was ~10 min.
For CCCN(CCc1ccc(N)cc1)C1CCc2c(O)cccc2C1 (racemic) [PPHT, (±)-4′-amino-2-(N-phenethyl-N-propyl)-amino-5-hydroxytetralin], the “rate of dissociation of the fluorescent tracer” value [1] was 0.45 min⁻¹.
